Assay results taken from patent US9586951B2 (FUJIFILM Corporation, priority 2013, dated 2017).

The compounds below were run against T1, ATM (Homo sapiens, UniProt Q13315) (assay: ATM inhibition test (phosphorylation of Chk2 generated by ionizing radiation, AlphaScreen SureFire)). Conditions: phosphorylated Chk2 in NCI-H460 cells, ionizing radiation 8Gy, 1 hour after test compound treatment; read-out: ATM inhibitory activity.
T1 construct: detecting phosphorylation of Chk2 in a human non-small cell lung cancer cell line NCI-H460 (ATCC company); host or cells: NCI-H460 human non-small cell lung cancer cells
Assay type: cell-based
Procedure, shortened: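 NCI-H460 cells, compound 1 h pre-treatment, 8Gy IR, further 1 h at 37° C in 5% CO2. Read-out: phospho-Chk2 via AlphaScreen SureFire. % inhibition relative to IR-induced signal window (irradiated vs non-irradiated drug-free wells).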

T1 sequence (Q13315 whole entry): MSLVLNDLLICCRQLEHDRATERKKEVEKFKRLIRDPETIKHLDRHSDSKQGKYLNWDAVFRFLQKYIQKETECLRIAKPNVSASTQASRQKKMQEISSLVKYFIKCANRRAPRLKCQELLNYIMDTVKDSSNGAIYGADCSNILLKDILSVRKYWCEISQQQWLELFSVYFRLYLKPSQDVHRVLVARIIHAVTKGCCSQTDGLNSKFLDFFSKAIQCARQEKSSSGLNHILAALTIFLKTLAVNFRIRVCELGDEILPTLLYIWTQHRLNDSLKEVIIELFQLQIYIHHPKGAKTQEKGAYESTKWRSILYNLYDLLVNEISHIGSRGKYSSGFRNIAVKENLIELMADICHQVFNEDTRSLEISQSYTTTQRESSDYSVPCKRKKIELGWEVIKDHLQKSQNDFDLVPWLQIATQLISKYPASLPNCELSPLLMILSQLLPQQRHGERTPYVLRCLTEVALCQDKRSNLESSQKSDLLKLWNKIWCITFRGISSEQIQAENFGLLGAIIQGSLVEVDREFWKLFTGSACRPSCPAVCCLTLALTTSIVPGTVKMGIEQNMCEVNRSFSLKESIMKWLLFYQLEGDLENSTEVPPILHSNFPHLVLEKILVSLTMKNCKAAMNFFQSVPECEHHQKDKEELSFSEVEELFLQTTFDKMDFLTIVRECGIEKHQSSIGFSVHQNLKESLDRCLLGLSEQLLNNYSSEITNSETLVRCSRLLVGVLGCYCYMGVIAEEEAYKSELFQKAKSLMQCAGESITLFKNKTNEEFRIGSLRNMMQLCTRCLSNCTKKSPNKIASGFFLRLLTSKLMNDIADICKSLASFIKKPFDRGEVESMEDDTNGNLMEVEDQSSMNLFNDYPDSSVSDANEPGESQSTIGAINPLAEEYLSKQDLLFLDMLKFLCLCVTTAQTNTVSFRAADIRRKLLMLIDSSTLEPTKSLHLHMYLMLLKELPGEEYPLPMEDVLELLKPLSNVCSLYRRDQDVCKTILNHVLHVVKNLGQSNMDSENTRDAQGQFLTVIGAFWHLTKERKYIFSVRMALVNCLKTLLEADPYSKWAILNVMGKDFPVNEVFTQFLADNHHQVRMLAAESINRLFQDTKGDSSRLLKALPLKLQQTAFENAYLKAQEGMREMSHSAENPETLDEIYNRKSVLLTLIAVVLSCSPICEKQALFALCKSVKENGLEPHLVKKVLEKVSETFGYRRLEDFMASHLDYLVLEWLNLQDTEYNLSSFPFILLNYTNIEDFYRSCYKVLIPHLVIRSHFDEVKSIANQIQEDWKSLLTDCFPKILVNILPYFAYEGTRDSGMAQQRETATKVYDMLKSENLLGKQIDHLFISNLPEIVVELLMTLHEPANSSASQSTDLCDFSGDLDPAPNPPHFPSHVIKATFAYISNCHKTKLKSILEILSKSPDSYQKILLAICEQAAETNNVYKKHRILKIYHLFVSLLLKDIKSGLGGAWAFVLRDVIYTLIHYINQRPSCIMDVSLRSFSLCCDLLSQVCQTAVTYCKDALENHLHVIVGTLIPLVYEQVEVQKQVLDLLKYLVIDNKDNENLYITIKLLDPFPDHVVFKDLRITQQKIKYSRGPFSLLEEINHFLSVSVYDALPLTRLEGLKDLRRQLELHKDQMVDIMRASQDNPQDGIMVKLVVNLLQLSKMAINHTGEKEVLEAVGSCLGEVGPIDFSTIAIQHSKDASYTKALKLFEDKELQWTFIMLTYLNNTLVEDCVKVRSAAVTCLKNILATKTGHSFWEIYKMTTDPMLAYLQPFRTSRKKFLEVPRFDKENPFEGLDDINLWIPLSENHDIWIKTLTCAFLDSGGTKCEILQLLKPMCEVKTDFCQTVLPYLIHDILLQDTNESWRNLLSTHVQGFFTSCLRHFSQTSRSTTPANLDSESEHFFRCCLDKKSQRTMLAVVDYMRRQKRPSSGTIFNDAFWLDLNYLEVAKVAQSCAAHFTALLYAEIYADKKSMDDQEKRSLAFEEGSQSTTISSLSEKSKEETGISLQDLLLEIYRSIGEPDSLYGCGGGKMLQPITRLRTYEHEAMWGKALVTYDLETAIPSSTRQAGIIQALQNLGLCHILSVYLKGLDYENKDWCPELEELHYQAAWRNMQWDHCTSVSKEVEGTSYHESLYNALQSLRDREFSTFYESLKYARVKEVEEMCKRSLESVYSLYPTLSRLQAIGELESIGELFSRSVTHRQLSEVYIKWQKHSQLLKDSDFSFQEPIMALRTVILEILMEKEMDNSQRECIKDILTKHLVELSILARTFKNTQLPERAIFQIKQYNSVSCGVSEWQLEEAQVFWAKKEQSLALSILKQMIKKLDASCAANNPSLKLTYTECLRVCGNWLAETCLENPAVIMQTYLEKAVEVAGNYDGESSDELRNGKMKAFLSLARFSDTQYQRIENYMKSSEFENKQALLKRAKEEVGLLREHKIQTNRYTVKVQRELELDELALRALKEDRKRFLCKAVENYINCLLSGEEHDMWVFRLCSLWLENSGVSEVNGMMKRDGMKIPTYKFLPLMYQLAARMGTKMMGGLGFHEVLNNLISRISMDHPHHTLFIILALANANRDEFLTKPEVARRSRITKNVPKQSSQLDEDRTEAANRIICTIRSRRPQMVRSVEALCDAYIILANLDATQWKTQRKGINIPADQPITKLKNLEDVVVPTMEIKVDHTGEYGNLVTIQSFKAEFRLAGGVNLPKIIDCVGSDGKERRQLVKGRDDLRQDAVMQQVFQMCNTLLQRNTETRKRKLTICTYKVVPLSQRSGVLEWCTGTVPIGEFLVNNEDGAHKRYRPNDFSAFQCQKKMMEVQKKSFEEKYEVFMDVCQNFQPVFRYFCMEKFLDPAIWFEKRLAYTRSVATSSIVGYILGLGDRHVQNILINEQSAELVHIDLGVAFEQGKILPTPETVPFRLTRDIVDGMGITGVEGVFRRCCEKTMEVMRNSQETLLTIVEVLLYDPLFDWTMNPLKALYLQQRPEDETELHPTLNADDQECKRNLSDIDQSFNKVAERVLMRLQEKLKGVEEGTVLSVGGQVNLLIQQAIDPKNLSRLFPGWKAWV

IC50 | SMILES
100 to 500 nM | CC(CN1CC(F)(F)C1)Nc1ccc2c(c1)Sc1cccc(-c3cc(N4CCOCC4)cc(=O)[nH]3)c1S2 (centres unmarked) [Example 1-43-4, 6-(7-((1-(3,3-Difluoroazetidin-1-yl)propan-2-yl)amino)thianthren-1-yl)-4-morpholino pyridin-2(1H)-one]
100 to 500 nM | CC(CN1CCC(F)(F)C1)Nc1ccc2c(c1)Sc1cccc(-c3cc(N4CCOCC4)cc(=O)[nH]3)c1S2 (centres unmarked) [Example 1-43-7, 6-(7-((1-(3,3-Difluoropyrrolidin-1-yl)propan-2-yl)amino)thianthren-1-yl)-4-morpholino pyridin-2(1H)-one]
500 to 2000 nM | CC(CN1CCO[C@@H](C)C1)Nc1ccc2c(c1)Sc1cccc(-c3cc(N4CCOCC4)cc(=O)[nH]3)c1S2 (stereo partly drawn) [Example 1-43-8, 6-(7-((4-((S)-2-Methylmorpholino)propan-2-yl)amino)thianthren-1-yl)-4-morpholino pyridin-2(1H)-one]
< 100 nM | O=c1cc(N2CCOCC2)cc(-c2cccc3c2Sc2ccc(NCc4ccc(Cl)nc4)cc2S3)[nH]1 [Example 1-44-2, 6-(7-(((6-Chloropyridin-3-yl)methyl)amino)thianthren-1-yl)-4-morpholino pyridin-2(1H)-one]
100 to 500 nM | Cc1cc(CNc2ccc3c(c2)Sc2cccc(-c4cc(N5CCOCC5)cc(=O)[nH]4)c2S3)ccn1 [Example 1-44-3, 6-(7-(((2-Methylpyridin-4-yl)methyl)amino)thianthren-1-yl)-4-morpholino pyridin-2(1H)-one]
< 100 nM | CC(C)(C)OC(=O)n1cc(-c2cncc(CNc3ccc4c(c3)Sc3cccc(-c5cc(N6CCOCC6)cc(=O)[nH]5)c3S4)c2)cn1 [Example 1-44-6, tert-Butyl 4-(5-(((6-(4-morpholino-6-oxo-1,6-dihydropyridin-2-yl)thianthren-2-yl)amino)methyl)pyridin-3-yl)-1H-pyrazole-1-carboxylate]
100 to 500 nM | COc1ccncc1CN1CCC(Nc2ccc3c(c2)Sc2cccc(-c4cc(N5CCOCC5)cc(=O)[nH]4)c2S3)CC1 [Example 1-45, 6-(7-((1-((4-Methoxypyridin-3-yl)methyl)piperidin-4-yl)amino)thianthren-1-yl)-4-morpholinopyridin-2(1H)-one]
100 to 500 nM | CC(C)(CN1CCOCC1)Nc1ccc2c(c1)Sc1cccc(-c3cc(N4CCOCC4)cc(=O)[nH]3)c1S2 [Example 1-46-2, 6-(7-((2-methyl-1-morpholinopropan-2-yl)amino)thianthren-1-yl)-4-morpholinopyridin-2(1H)-one]
100 to 500 nM | COCCN(CCOC)C[C@@H](COC)Nc1ccc2c(c1)Sc1cccc(-c3cc(N4CCOCC4)cc(=O)[nH]3)c1S2 [Example 1-46-3, (S)-6-(7-((1-(bis(2-methoxyethyl)amino)-3-methoxypropan-2-yl)amino)thianthren-1-yl)-4-morpholinopyridin-2(1H)-one]
100 to 500 nM | COC[C@H](CN(C)C1CCCCC1)Nc1ccc2c(c1)Sc1cccc(-c3cc(N4CCOCC4)cc(=O)[nH]3)c1S2 [Example 1-46-12, (S)-6-(7-((1-(Cyclohexyl (methyl)amino)-3-methoxypropan-2-yl)amino)thianthren-1-yl)-4-morpholino pyridin-2 (1H)-one]
100 to 500 nM | COC[C@H](CN1[C@H](C)CCC[C@@H]1C)Nc1ccc2c(c1)Sc1cccc(-c3cc(N4CCOCC4)cc(=O)[nH]3)c1S2 [Example 1-46-13, 6-(7-(((S)-1-((2R,6S)-2,6- Dimethylpiperidin-1-yl)-3-methoxypropan-2-yl)amino)thianthren-1-yl)-4-morpholino pyridin-2(1H)-one]
100 to 500 nM | COC[C@H](CN(C(C)C)C(C)C)Nc1ccc2c(c1)Sc1cccc(-c3cc(N4CCOCC4)cc(=O)[nH]3)c1S2 [Example 1-46-14, (S)-6-(7-((1-(Diisopropylamino)-3-methoxypropan-2-yl)amino)thianthren-1-yl)-4-morpholino pyridin-2(1H)-one]
100 to 500 nM | O=c1cc(N2CCOCC2)cc(-c2cccc3c2Sc2ccc(OCCN4CCOCC4)cc2S3)[nH]1 [Example 1-47, 4-Morpholino-6-(7-(2-morpholinoethoxy)thianthren-1-yl)pyridin-2(1H)-one]
500 to 2000 nM | COC[C@@H](Nc1ccc2c(c1)Sc1cccc(-c3cc(N4CCOCC4)cc(=O)[nH]3)c1S2)C(=O)O [Example 1-49, (R)-3-methoxy-2-((6-(4-morpholino-6-oxo-1,6-dihydropyridin-2-yl)thianthren-2-yl)amino)propionic acid]
100 to 500 nM | Cc1ccc(C2(Nc3ccc4c(c3)Sc3cccc(-c5cc(N6CCOCC6)cc(=O)[nH]5)c3S4)CCC2)nc1 [Example 1-50-3, 6-(7-((1-(5-Methylpyridin-2-yl)cyclobutyl)amino)thianthren-1-yl)-4-morpholino pyridin-2(1H)-one]
500 to 2000 nM | CCC(CC)(Nc1ccc2c(c1)Sc1cccc(-c3cc(N4CCOCC4)cc(=O)[nH]3)c1S2)c1ccc(C)cn1 [Example 1-50-6, 6-(7-((3-(5-Methylpyridin-2-yl)pentan-3-yl)amino)thianthren-1-yl)-4-morpholino pyridin-2(1H)-one]

IC50 | SMILES
< 100 nM | O=c1cc(N2CCOCC2)cc(-c2cccc3c2Sc2ccc(NC(CN4CCOCC4)CN4CCOCC4)cc2S3)[nH]1 [Example 1-51-12, 6-(7-((1,3-Dimorpholinopropan-2-yl)amino)thianthren-1-yl)-4-morpholino pyridin-2 (1H)-one]
500 to 2000 nM | O=c1cc(N2CCOCC2)cc(-c2cccc3c2Sc2ccccc2S3)[nH]1 [Example 1-53, 4-morpholino-6-(thianthren-1-yl)pyridin-2(1H)-one]
< 100 nM | CCN1CCC(C(Nc2ccc3c(c2)Sc2cccc(-c4cc(N5CCOCC5)cc(=O)[nH]4)c2S3)c2ccc(C)cn2)CC1 (centres unmarked) [Example 1-56-1, 6-(7-(((1-ethylpiperidin-4-yl)(5-methylpyridin-2-yl)methyl)amino)thianthren-1-yl)-4-morpholinopyridin-2(1H)-one]
< 100 nM | Cc1ccc(C(Nc2ccc3c(c2)Sc2cccc(-c4cc(N5CCOCC5)cc(=O)[nH]4)c2S3)C2CCN(CCF)CC2)nc1 (centres unmarked) [Example 1-56-6, 6-(7-(((1-(2-Fluoroethyl)piperidin-4-yl)(5-methylpyridin-2-yl)methyl)amino)thianthren-1-yl)-4-morpholino pyridin-2(1H)-one]
< 100 nM | COCCN1CCC(C(Nc2ccc3c(c2)Sc2cccc(-c4cc(N5CCOCC5)cc(=O)[nH]4)c2S3)c2ccc(C)cn2)CC1 (centres unmarked) [Example 1-56-7, 6-(7-(((1-(2-Methoxyethyl)piperidin-4-yl)(5-methylpyridin-2-yl)methyl)amino)thianthren-1-yl)-4-morpholino pyridin-2(1H)-one]
< 100 nM | Cc1ccc(C(Nc2ccc3c(c2)Sc2cccc(-c4cc(N5CCOCC5)cc(=O)[nH]4)c2S3)C2CCN(CC(F)F)CC2)nc1 (centres unmarked) [Example 1-58, 6-(7-(((1-(2,2-difluoroethyl)piperidin-4-yl)(5-methylpyridin-2-yl)methyl)amino)thianthren-1-yl)-4-morpholinopyridin-2(1H)-one]
< 100 nM | COCC[C@H](CN1CCOCC1)Nc1ccc2c(c1)Sc1cccc(-c3cc(N4CCOCC4)cc(=O)[nH]3)c1S2 [Example 1-59-1, (R)-6-(7-((4-methoxy-1-morpholinobutan-2-yl)amino)thianthren-1-yl)-4-morpholinopyridin-2(1H)-one]
100 to 500 nM | O=c1cc(N2CCOCC2)cc(-c2cccc3c2Sc2ccc(N[C@H](COCc4ccccc4)CN4CCOCC4)cc2S3)[nH]1 [Example 1-59-2, (S)-6-(7-((1-(benzyloxy)-3-morpholinopropan-2-yl)amino)thianthren-1-yl)-4-morpholinopyridin-2(1H)-one]
500 to 2000 nM | Nc1ccc2c(c1)Cc1cccc(-c3cc(N4CCOCC4)cc(=O)[nH]3)c1O2 [Example 2-1-1, 5-6-(7-amino-9H-xanthen-4-yl)-4-morpholinopyridin-2(1H)-one]
< 100 nM | Cc1ccc(CNc2ccc3c(c2)Cc2cccc(-c4cc(N5CCOCC5)cc(=O)[nH]4)c2O3)cn1 [Example 2-2-2, 6-(7-(((6-Methylpyridin-3-yl)methyl)amino)-9H-xanthen-4-yl)-4-morpholino pyridin-2 (1H)-one]
500 to 2000 nM | O=c1cc(N2CCOCC2)cc(-c2cccc3c2Oc2ccc(NCc4ccc(OC5CCOCC5)nc4)cc2C3)[nH]1 [Example 2-2-4, 4-Morpholino-6-(7-(((6-((tetrahydro-2H-pyran-4-yl)oxy)pyridin-3-yl)methyl)amino)-9H-xanthen-4-yl)pyridin-2 (1H)-one]
100 to 500 nM | CN1CCOc2cc(CNc3ccc4c(c3)Cc3cccc(-c5cc(N6CCOCC6)cc(=O)[nH]5)c3O4)cnc21 [Example 2-2-5, 6-(7-(((4-Methyl-3,4-dihydro-2H-pyrido[3,2-b] [1,4]oxazin-7-yl)methyl)amino)-9H-xanthen-4-yl)-4-morpholino pyridin-2 (1H)-one]
100 to 500 nM | O=c1cc(N2CCOCC2)cc(-c2cccc3c2Oc2ccc(NCc4ccc(N5CCOCC5)nc4)cc2C3)[nH]1 [Example 2-2-6, 4-Morpholino-6-(7-(((6-morpholinopyridin-3-yl)methyl)amino)-9H-xanthen-4-yl)pyridin-2(1H)-one]
100 to 500 nM | CN(C)c1ccc(CNc2ccc3c(c2)Cc2cccc(-c4cc(N5CCOCC5)cc(=O)[nH]4)c2O3)cn1 [Example 2-2-8, 6-(7-(((6-(Dimethylamino)pyridin-3-yl)methyl)amino)-9H-xanthen-4-yl)-4-morpholino pyridin-2(1H)-one]
100 to 500 nM | Cc1cncc(CNc2ccc3c(c2)Cc2cccc(-c4cc(N5CCOCC5)cc(=O)[nH]4)c2O3)c1 [Example 2-2-9, 6-(7-(((5-Methylpyridin-3-yl)methyl)amino)-9H-xanthen-4-yl)-4-morpholino pyridin-2(1H)-one]
100 to 500 nM | O=c1cc(N2CCOCC2)cc(-c2cccc3c2Oc2ccc(NCc4cncc(F)c4)cc2C3)[nH]1 [Example 2-2-10, 6-(7-(((5-Fluoropyridin-3-yl)methyl)amino)-9H-xanthen-4-yl)-4-morpholino pyridin-2 (1H)-one]
